In one data set the target is N-type calcium channels (Homo sapiens, UniProt Q00975). Conditions: cited from earlier work.
The test system of data set [1] is rats with status epilepticus induced by the RLDP procedure. Nature of the data set: Elevated plus maze (exploratory behaviour) at 8 weeks post-SE. It counts as in vivo, rat. Conditions: administered 3 hours post-SE, 5 minutes on maze. As for the experimental part:
(§1) We investigated possible behavioral effects of 60 min SE induced with the RLDP procedure. Visual-spatial memory was investigated with the Morris water maze (MWM) at 8 weeks post-SE to detect chronic cognitive impairment. The MWM is of particular usefulness with studies involving therapeutic agents, since the severity of neurodegeneration in the anterior CA1 region is strongly correlated with performance (escape latency) (Clasussen et al, 2005). […] All groups contained at least 6 animals.
The elevated plus maze is used to investigate exploratory behaviour. At 8 weeks post-SE, animals were placed on the elevated plus maze for 5 minutes and videotaped. […] Furthermore, SE animals had reduced frequency of lookouts into the open arm and rearing episodes when compared to controls (FIGS. 12 E & F).

Data set [2] concerns male Wistar rats with pilocarpine-induced status epilepticus. Nature of the data set: Neuron loss (NeuN-positive cell counts) after status epilepticus in the lithium-pilocarpine rat model.
Method: Male Wistar rats between 350 to 400 grams were pretreated with lithium chloride (ip; 3 mEq/kg) 17 to 24 hours before systemic injection of the chemoconvulsant pilocarpine. Pilocarpine (ip; 10 mg/kg) was administered every 30 minutes until onset of status epilepticus (SE), which was defined as a loss of consciousness and continuous overt seizure activity. […] Rats generally developed SE shortly thereafter. […] SE was terminated at 1, 3 and 5 hours following onset of SE with diazepam (ip; 4 mg/kg).
Animals were anaesthetized with ketamine and Romptum, and transcardially perfused with paraformaldehyde (PFA; 4% in 0.1M phosphate buffer, pH 7.4) 2 weeks after SE induction. Brains were removed, post-fixed overnight in PFA, and then equilibrated in 30% sucrose in PBS. Brains were then frozen at −35° C. in methylbutane and stored until further use at −70° C. in scintillation vials containing frozen 30% sucrose in PBS to prevent freezer drying. The brains were coronally sectioned at 40 μm using a freezing microtome and stored at −20° C. in 24-well plates containing antifreeze solution (15% glucose, 30% ethylene glycol, 50 mMol phosphate buffer; pH 7.4).
For each animal, neuronal cells were quantified by immunohistochemical staining with NeuN, a neuronal cell specific antibody.
For data set [3] the following is noted: stroke indication; cited from earlier work.
For data set [4], the system named is rats with status epilepticus induced by the RLDP procedure. Nature of the data set: Morris water maze (visual-spatial memory) at 8 weeks post-SE. The note with it: administered 3 hours post-SE. It counts as in vivo, rat. The protocol:
as §1
In our study animals were trained on the MWM task for 14 consecutive days, with 6 trials completed daily. […] No SE animals, however, learned the task within 6 consecutive days, with no further improvement in escape latency thereafter.

The subject of the next data set is animal models of stroke. The note with it: applied before or 1 hour after a stroke; cited from earlier work.
Data set [5] deals with male Wistar rats with pilocarpine-induced status epilepticus. The experiment in a line: Lateral ventricle size after SE, Nissl (cresyl violet) stained brain sections. It counts as in vivo, rat. Conditions: treated at 3 hours post-SE (0.3 and 3 nmol/gm); 14 days post-SE. As for the experimental part: Following pilocarpine and Tat-NR2B9c administration, and fixing of brain sections, as described above, every 6th section was used for Niss1 staining with cresyl violet. Sections were mounted and allowed to air dry on gelatin coated slides. The sections were rehydrated in an alcohol series at 100%, 95%, 70%, and 50% each for 5 minutes. The sections are then placed in water for 1 minute, followed by the Cresyl Violet Stain for 20 to 30 minutes. Sections are rinsed (30 seconds×2) in water, and dehydrated in an alcohol series at 50% for 5 minutes (or less), 70% for 5 minutes (or less), 95% for 5 minutes (or less), 100% for 5 minutes (or less), and 100% for 5 minutes (or less). Differentiation occurs maximally at the 50% and 70% alcohol gradients. Sections were cleared in xylene for 5 minutes and coverslipped with Permount, and viewed, e.g., under 40× magnification.

Entries after “also recorded” stand apart in the source; their conditions may differ.

Sequence of N-type calcium channels (Q00975 whole entry): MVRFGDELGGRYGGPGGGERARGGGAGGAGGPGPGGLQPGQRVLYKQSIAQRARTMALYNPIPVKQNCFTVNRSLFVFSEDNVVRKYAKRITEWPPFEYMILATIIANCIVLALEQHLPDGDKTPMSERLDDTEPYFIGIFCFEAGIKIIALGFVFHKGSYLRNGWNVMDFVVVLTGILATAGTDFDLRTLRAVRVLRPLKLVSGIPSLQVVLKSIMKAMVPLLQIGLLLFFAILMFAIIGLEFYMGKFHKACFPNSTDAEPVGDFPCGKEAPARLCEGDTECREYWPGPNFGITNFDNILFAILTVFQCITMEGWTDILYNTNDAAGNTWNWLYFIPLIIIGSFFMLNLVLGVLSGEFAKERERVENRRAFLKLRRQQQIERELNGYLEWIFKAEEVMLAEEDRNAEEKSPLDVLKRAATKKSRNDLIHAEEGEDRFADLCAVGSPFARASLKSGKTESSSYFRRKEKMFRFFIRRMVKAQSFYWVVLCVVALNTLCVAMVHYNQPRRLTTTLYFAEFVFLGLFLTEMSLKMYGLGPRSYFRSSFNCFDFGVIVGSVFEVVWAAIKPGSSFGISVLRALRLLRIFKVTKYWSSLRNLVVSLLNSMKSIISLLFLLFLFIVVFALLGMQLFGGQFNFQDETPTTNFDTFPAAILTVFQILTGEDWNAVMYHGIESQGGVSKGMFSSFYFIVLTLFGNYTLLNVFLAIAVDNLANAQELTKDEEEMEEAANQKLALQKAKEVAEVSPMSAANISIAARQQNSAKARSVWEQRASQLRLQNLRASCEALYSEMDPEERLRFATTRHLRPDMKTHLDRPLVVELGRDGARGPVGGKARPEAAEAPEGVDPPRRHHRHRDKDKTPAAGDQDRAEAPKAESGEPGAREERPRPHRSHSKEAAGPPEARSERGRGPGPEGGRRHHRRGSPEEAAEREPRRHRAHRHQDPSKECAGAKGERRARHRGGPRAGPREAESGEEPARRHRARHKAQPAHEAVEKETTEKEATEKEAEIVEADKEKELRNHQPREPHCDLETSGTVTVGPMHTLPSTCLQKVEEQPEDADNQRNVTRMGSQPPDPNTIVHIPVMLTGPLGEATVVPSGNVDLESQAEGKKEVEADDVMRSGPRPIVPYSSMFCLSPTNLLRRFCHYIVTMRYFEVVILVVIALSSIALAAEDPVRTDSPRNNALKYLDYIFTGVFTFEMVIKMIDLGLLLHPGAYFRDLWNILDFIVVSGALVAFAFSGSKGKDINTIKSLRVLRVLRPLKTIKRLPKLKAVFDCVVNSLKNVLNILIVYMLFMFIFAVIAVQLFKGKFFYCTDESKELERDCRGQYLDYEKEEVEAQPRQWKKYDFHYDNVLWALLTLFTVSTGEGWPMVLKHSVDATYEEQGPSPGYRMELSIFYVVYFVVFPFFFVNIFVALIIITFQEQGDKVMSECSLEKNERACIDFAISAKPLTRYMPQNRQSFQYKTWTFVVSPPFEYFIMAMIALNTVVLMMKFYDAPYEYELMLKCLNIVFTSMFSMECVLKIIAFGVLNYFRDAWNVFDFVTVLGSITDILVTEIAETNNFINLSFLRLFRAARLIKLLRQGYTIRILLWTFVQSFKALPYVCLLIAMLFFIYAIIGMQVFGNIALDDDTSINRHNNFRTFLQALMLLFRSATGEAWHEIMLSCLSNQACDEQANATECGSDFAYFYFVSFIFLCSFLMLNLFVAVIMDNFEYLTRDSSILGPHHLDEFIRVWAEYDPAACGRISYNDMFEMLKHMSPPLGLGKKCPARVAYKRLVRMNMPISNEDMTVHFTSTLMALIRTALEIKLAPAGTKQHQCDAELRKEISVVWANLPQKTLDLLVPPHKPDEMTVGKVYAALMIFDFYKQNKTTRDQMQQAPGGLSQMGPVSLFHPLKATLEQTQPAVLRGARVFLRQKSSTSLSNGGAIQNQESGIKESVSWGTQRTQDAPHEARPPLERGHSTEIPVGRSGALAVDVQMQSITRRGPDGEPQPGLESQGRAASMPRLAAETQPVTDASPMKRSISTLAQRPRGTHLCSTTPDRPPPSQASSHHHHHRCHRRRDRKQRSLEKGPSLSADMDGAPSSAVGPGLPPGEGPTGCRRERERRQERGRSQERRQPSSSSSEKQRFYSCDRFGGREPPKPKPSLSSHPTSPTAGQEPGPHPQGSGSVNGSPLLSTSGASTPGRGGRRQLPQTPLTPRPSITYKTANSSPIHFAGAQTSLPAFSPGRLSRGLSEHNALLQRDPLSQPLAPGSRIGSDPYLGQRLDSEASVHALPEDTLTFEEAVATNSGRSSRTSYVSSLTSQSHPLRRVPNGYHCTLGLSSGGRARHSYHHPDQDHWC

With YGRKKRRQRRR [standard tat peptide], the “Binding to and inhibition of N-type calcium channels” value with N-type calcium channels was “binds to and inhibits N-type calcium channels”.
As to “YGRKKRRQRRRKLSSIESDV (synthetic chimeric PDZ-binding ligand (PL) motif active peptide linked to HIV TAT internalization peptide, Tat-NR2B9c-(SDV)) [HIV Tat internalization peptide linked to NR2B C-terminal 9-mer; PSD-95 antagonist]”, the “Effects of SE on exploratory behaviour / cognitive impairment, elevated plus maze” value in data set [1] is “decreased these effects of SE on exploratory behavior; also recorded: reduces the cognitive impairment caused by status epilepticus”. In addition, the “Neuroprotection / neuron loss (NeuN-positive cells), peptide administered during status epilepticus” value in data set [2] (administered 10 minutes following initiation of SE, 0.3, 3 and 9 nmol/gm, 7 days after SE) is recorded as “did not decrease neuron loss; also recorded: comparable to neuron loss in untreated rats; also recorded: not during”. The “NeuN-immunostaining of coronal sections of the dorsal hippocampus (histochemical visualization)” value in data set [2] (administered 3 hours following the insult, 2.5x and 40x magnification) is “increased NeuN-immunostaining; also recorded: This effect was reversed”. Besides, the “Neuroprotection / neuron loss (NeuN-positive cells), anterior (dorsal) CA1 region of the hippocampus” value in data set [2] (administered via femoral vein 3 hours after termination of SE, 0.3 or 3 nmol/gm, 14 days recovery) is “rescued neuron loss in a dose-dependent manner; also recorded: especially protective; also recorded: conferred neuroprotection; also recorded: neuroprotective in the anterior CA1 region of the hippocampus; also recorded: neuroprotective when administered after; also recorded: dose-dependent neuroprotection”. In data set [2] (compared to saline-treated animals), the “Number of surviving neuronal cells near the subicular border of the CA1 region” value was “increased the number of surviving neuronal cells”. Besides, in data set [2] (rat, in vivo), the “Neuroprotection in the CA4 region” value was “confers neuroprotection”. The “Adverse events / side effects in phase I clinical trials” value in data set [3] is listed as “without serious adverse events”. Besides, in data set [4], the “Escape latency performance, Morris water maze” value is recorded as “improves escape latency performance, especially during the initial 5 days of acquisition learning”. Besides, in the data set with animal models of stroke, the “Neuroprotection in animal models of stroke” value is on record as “highly neuroprotective”. Also, in data set [5], the “Size of lateral ventricles following SE” value is listed as “reduced them to the size found in rats who had not been given pilocarpine; also recorded: dramatic reduction of lateral ventricle size; also recorded: noticeably smaller lateral ventricles”.
